BindingDB's records for doi:10.7270/Q27P8WVP (Nmmlsc, 2010)

Target: Regulator of G-protein signaling 4 (Homo sapiens, UniProt P49798)
Experiment: RGS4-Galphao binding modulators, SAR follow-up, biochemical, multiplexed bead flow cytometry, SAR compounds (AID 2295)

Sequence of Regulator of G-protein signaling 4 (P49798 whole entry): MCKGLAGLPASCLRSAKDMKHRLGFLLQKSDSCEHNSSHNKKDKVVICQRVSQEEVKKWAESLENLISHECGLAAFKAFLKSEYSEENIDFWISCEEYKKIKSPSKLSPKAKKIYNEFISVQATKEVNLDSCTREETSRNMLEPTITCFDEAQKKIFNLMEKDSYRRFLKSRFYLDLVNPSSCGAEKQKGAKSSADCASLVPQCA

`NS(=O)(=O)c1ccc(N=NCc2ccc(O)c(O)c2O)c([N+](=O)[O-])c1` [4-[[(E)-(2,3-dihydroxy-4-oxo-1-cyclohexa-2,5-dienylidene)methyl]hydrazo]-3-nitrobenzenesulfonamide] gave a Ki of 1.02 µM.
